According to ChEMBL document CHEMBL1201862, “PubChem BioAssay data set” (2004):
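Assay format: 96-well plates, 48-hour exposure. GI50 marks 50% less growth.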 The source made the active and inactive calls. Cut-off read from the data, not from the text of the source: active = GI50 up to about 1.1 µM and inactive = higher.

Tests used:
Assay in all cases: NCI tumour cell line growth inhibition, 48 h
[1] = test system: HCC 2998
[2] = test system: UO-31
[3] = test system: MDA-N
[4] = test system: Malme-3M
[5] = test system: U-251
[6] = test system: A549
[7] = test system: HT-29
[8] = test system: SK-MEL-28
[9] = test system: KM12
[10] = test system: CAKI-1
[11] = test system: SF-539
[12] = test system: SN12C
[13] = test system: SF-295
[14] = test system: EKVX
[15] = test system: NCI-H226
[16] = test system: RXF 393
[17] = test system: SNB-75
[18] = test system: T47D
[19] = test system: LOX IMVI
[20] = test system: SK-MEL-2

Measured: GI50

NC(=O)C1=CC2C3C=CC2(O)C(=O)OC3O1 (stereo not given)
inactive: [1] 12.2 µM | [2] 3.67 µM | [3] 2.61 µM | [4] 1.82 µM | [5] 8.59 µM | [6] 34.7 µM | [7] 2.92 µM | [8] 2.34 µM | [9] 2.94 µM | [10] 6.07 µM | [11] 3.56 µM | [12] 4.28 µM | [13] 11.9 µM | [14] 3.44 µM | [15] 2.31 µM | [16] 2.52 µM | [17] 7.98 µM | [18] 3.36 µM | [19] 2.14 µM | [20] 3.57 µM

c1ccc(-c2c[nH]c(SC(c3ccccc3)c3ccccc3)n2)cc1
inactive: [1] 17 µM | [2] 29.6 µM | [3] 20.7 µM | [4] 15 µM | [5] 15 µM | [6] 21.9 µM | [7] 10.9 µM | [8] 33.7 µM | [9] 16.8 µM | [10] 13.8 µM | [11] 30.4 µM | [12] 17.4 µM | [13] 15.2 µM | [14] 13.3 µM | [15] 17.3 µM | [16] 15.8 µM | [17] 32.1 µM | [18] 8.95 µM | [19] 17.6 µM | [20] 16.9 µM

FC(F)(F)c1n[nH]c(SCc2ccc(Cl)cc2)n1
inactive: [1] > 100 µM | [2] 59.4 µM | [3] > 100 µM | [4] > 100 µM | [5] > 100 µM | [6] > 100 µM | [7] > 100 µM | [8] > 100 µM | [9] > 100 µM | [10] > 100 µM | [11] > 100 µM | [12] > 100 µM | [13] > 100 µM | [14] > 100 µM | [15] > 100 µM | [16] > 100 µM | [17] > 100 µM | [18] > 100 µM | [19] > 100 µM | [20] > 100 µM
